From patent publication US20060247286A1, “Oxazolidinone antibiotics and derivatives thereof” (priority 2003, published 2006)
Converted amounts (≈) assume the structure as drawn.

Key:
Assay type in all cases: cell-based
[1] = system: Enterococcus faecium VRQR (vancomycin resistant, quinolone resistant); test: MIC, agar dilution method, Mueller-Hinton agar with 5% defibrinated horse blood; conditions: 35° C., 5% CO2, 24 hours
Protocol: (§1) The following in vitro results were obtained based on an agar dilution method except for C. pneumoniae. The activity is presented as the minimum inhibitory concentration (MIC).
(§2) Streptococci and enterococci were tested on Mueller-Hinton agar supplemented with 5% defibrinated horse blood, using an approximate inoculum of 1×10^4 cfu/spot an incubation temperature of 35° C. in an atmosphere of 5% CO2 for 24 hours. The MIC was defined as the lowest concentration at which no visible bacterial growth was observed.

[2] = system: Streptococcus pneumoniae IID553; test: as above; conditions: 35° C., 5% CO2, 24 hours
Protocol: as §1, §2

[3] = system: Streptococcus pyogenes IID692; test: as above; conditions: 35° C., 5% CO2, 24 hours
Protocol: as §1, §2

[4] = system: Streptococcus pneumoniae PRQR (penicillin resistant, quinolone resistant); test: as above; conditions: 35° C., 5% CO2, 24 hours
Protocol: as §1, §2

[5] = system: Staphylococcus aureus CR (chloramphenicol resistant); test: MIC, agar dilution method, Mueller-Hinton agar; conditions: 1×10^4 cfu/spot, 35° C., 24 hours
Protocol: as §1
(§3) S. aureus and M. catarrhalis were tested on Mueller-Hinton agar, using an approximate inoculum of 1×10^4 cfu/spot an incubation temperature of 35° C. for 24 hours. The MIC was defined as the lowest concentration at which no visible bacterial growth was observed.

[6] = system: Moraxella catarrhalis ATCC25238; test: MIC, agar dilution method, Mueller-Hinton agar; conditions: 1×10^4 cfu/spot, 35° C., 24 hours
Protocol: as §1, §3

[7] = system: Staphylococcus aureus Smith; test: MIC, agar dilution method, Mueller-Hinton agar; conditions: 1×10^4 cfu/spot, 35° C., 24 hours
Protocol: as §1, §3

[8] = system: Staphylococcus aureus MR (methicillin resistant); test: MIC, agar dilution method, Mueller-Hinton agar; conditions: 1×10^4 cfu/spot, 35° C., 24 hours
Protocol: as §1, §3

SMILES	MIC [1] [µg/mL]	MIC [2] [µg/mL]	MIC [3] [µg/mL]	MIC [4] [µg/mL]	MIC [5] [µg/mL]	MIC [6] [µg/mL]	MIC [7] [µg/mL]	MIC [8] [µg/mL]
CC(=O)NC[C@H]1CN(c2ccc([C@@]3(C#N)[C@@H]4CN(C(=O)CO)C[C@@H]43)cc2)C(=O)O1 [Example 8, N-[5(S)-3-[4-[(1α,5α,6β)-(6-Cyano-3-hydroxyacetyl-3-azabicyclo[3.1.0]hexan-6-yl)]phenyl]-2-oxooxazolidin-5-ylmethyl]acetamide]	0.5 (≈ 1.25 µM)	0.5 (≈ 1.25 µM)	0.5 (≈ 1.25 µM)	0.5 (≈ 1.25 µM)	2 (≈ 5.02 µM)	2 (≈ 5.02 µM)	1 (≈ 2.51 µM)	1 (≈ 2.51 µM)
CC(=O)NC[C@H]1CN(c2ccc([C@@]3(C#N)[C@@H]4CCC[C@@H]43)cc2)C(=O)O1 [Example 1, N-[5(S)-3-[4-[(1α,5α,6β)-(6-Cyanobicyclo[3.1.0]hexan-6-yl)]phenyl]-2-oxooxazolidin-5-ylmethyl]acetamide]	0.25 (≈ 0.737 µM)	0.5 (≈ 1.47 µM)	0.5 (≈ 1.47 µM)	0.25 (≈ 0.737 µM)	2 (≈ 5.89 µM)	0.5 (≈ 1.47 µM)	0.25 (≈ 0.737 µM)	0.25 (≈ 0.737 µM)

The remaining lines, values ahead:

MIC [1] [µg/mL]	MIC [2] [µg/mL]	MIC [3] [µg/mL]	MIC [4] [µg/mL]	MIC [5] [µg/mL]	MIC [6] [µg/mL]	MIC [7] [µg/mL]	MIC [8] [µg/mL]	SMILES
2 (≈ 5.93 µM)	2 (≈ 5.93 µM)	1 (≈ 2.96 µM)	1 (≈ 2.96 µM)	16 (≈ 47.4 µM)	4 (≈ 11.9 µM)	1 (≈ 2.96 µM)	1 (≈ 2.96 µM)	CC(=O)NC[C@H]1CN(c2ccc(N3CCOCC3)c(F)c2)C(=O)O1 [Linezolid, reference compound]
0.5 (≈ 1.19 µM)	0.5 (≈ 1.19 µM)	0.5 (≈ 1.19 µM)	0.5 (≈ 1.19 µM)	1 (≈ 2.39 µM)	2 (≈ 4.78 µM)	0.5 (≈ 1.19 µM)	0.5 (≈ 1.19 µM)	CC(=O)NC[C@H]1CN(c2ccc([C@@]3(C#N)[C@@H]4CN(S(C)(=O)=O)C[C@@H]43)cc2)C(=O)O1 [Example 9, N-[5(S)-3-[4-[(1α,5α,6β)-(6-Cyano-3-methanesulfonyl-3-azabicyclo[3.1.0]hexan-6-yl)]phenyl]-2-oxooxazolidin-5-ylmethyl]acetamide]
0.25 (≈ 0.684 µM)	0.25 (≈ 0.684 µM)	0.125 (≈ 0.342 µM)	0.25 (≈ 0.684 µM)	1 (≈ 2.74 µM)	1 (≈ 2.74 µM)	0.25 (≈ 0.684 µM)	0.5 (≈ 1.37 µM)	CC(=O)NC[C@H]1CN(c2ccc([C@@]3(C#N)[C@@H]4CN(C#N)C[C@@H]43)cc2)C(=O)O1 [Example 11, N-[5(S)-3-[4-[(1α,5α,6β)-(3,6-Dicyano-3-azabicyclo[3.1.0]hexan-6-yl)]phenyl]-2-oxooxazolidin-5-ylmethyl]acetamide]
